Results: BigSolDB 2.1

Compound: O=[N+]([O-])c1cc([N+](=O)[O-])c(Cl)cc1Cl
- solubility (mole fraction) (in 1,2-dichloroethane, 298.15 K): 0.138
- solubility (mole fraction) (in 1,2-dichloroethane, 303.15 K): 0.156
- solubility (mole fraction) (in 1,2-dichloroethane, 308.15 K): 0.176
- solubility (mole fraction) (in 1,2-dichloroethane, 313.15 K): 0.199
- solubility (mole fraction) (in 1,2-dichloroethane, 318.15 K): 0.224
- solubility (mole fraction) (in 1,2-dichloroethane, 323.15 K): 0.251
- solubility (mole fraction) (in 1,2-dichloroethane, 328.15 K): 0.282
- solubility (mole fraction) (in 1,2-dichloroethane, 333.15 K): 0.316
- solubility (mole fraction) (in DMF, 298.15 K): 0.286
- solubility (mole fraction) (in DMF, 303.15 K): 0.308
- solubility (mole fraction) (in DMF, 308.15 K): 0.329
- solubility (mole fraction) (in DMF, 313.15 K): 0.353
- solubility (mole fraction) (in DMF, 318.15 K): 0.378
- solubility (mole fraction) (in DMF, 323.15 K): 0.406
- solubility (mole fraction) (in DMF, 328.15 K): 0.436
- solubility (mole fraction) (in DMF, 333.15 K): 0.469
- solubility (mole fraction) (in DMSO, 298.15 K): 0.192
- solubility (mole fraction) (in DMSO, 303.15 K): 0.215
- solubility (mole fraction) (in DMSO, 308.15 K): 0.241
- solubility (mole fraction) (in DMSO, 313.15 K): 0.269
- solubility (mole fraction) (in DMSO, 318.15 K): 0.3
- solubility (mole fraction) (in DMSO, 323.15 K): 0.332
- solubility (mole fraction) (in DMSO, 328.15 K): 0.368
- solubility (mole fraction) (in DMSO, 333.15 K): 0.408
- solubility (mole fraction) (in NMP, 298.15 K): 0.362
- solubility (mole fraction) (in NMP, 303.15 K): 0.381
- solubility (mole fraction) (in NMP, 308.15 K): 0.4
- solubility (mole fraction) (in NMP, 313.15 K): 0.421
- solubility (mole fraction) (in NMP, 318.15 K): 0.444
- solubility (mole fraction) (in NMP, 323.15 K): 0.468
- solubility (mole fraction) (in NMP, 328.15 K): 0.495
- solubility (mole fraction) (in NMP, 333.15 K): 0.524
- solubility (mole fraction) (in acetone, 288.15 K): 0.169
- solubility (mole fraction) (in acetone, 293.15 K): 0.187
- solubility (mole fraction) (in acetone, 298.15 K): 0.206
- solubility (mole fraction) (in acetone, 303.15 K): 0.227
- solubility (mole fraction) (in acetone, 308.15 K): 0.249
- solubility (mole fraction) (in acetone, 313.15 K): 0.273
- solubility (mole fraction) (in acetone, 318.15 K): 0.298
- solubility (mole fraction) (in acetone, 323.15 K): 0.326
- solubility (mole fraction) (in acetonitrile, 298.15 K): 0.129
- solubility (mole fraction) (in acetonitrile, 303.15 K): 0.154
- solubility (mole fraction) (in acetonitrile, 308.15 K): 0.183
- solubility (mole fraction) (in acetonitrile, 313.15 K): 0.217
- solubility (mole fraction) (in acetonitrile, 318.15 K): 0.254
- solubility (mole fraction) (in acetonitrile, 323.15 K): 0.296
- solubility (mole fraction) (in acetonitrile, 328.15 K): 0.344
- solubility (mole fraction) (in acetonitrile, 333.15 K): 0.397
- solubility (mole fraction) (in chloroform, 293.15 K): 0.108
- solubility (mole fraction) (in chloroform, 298.15 K): 0.128
- solubility (mole fraction) (in chloroform, 303.15 K): 0.149
- solubility (mole fraction) (in chloroform, 308.15 K): 0.175
- solubility (mole fraction) (in chloroform, 313.15 K): 0.205
- solubility (mole fraction) (in chloroform, 318.15 K): 0.238
- solubility (mole fraction) (in chloroform, 323.15 K): 0.274
- solubility (mole fraction) (in chloroform, 328.15 K): 0.319
- solubility (mole fraction) (in dichloromethane, 278.15 K): 0.0915
- solubility (mole fraction) (in dichloromethane, 283.15 K): 0.106
- solubility (mole fraction) (in dichloromethane, 288.15 K): 0.121
- solubility (mole fraction) (in dichloromethane, 293.15 K): 0.138
- solubility (mole fraction) (in dichloromethane, 298.15 K): 0.158
- solubility (mole fraction) (in dichloromethane, 303.15 K): 0.181
- solubility (mole fraction) (in dichloromethane, 308.15 K): 0.205
- solubility (mole fraction) (in ethanol, 298.15 K): 0.00702
- solubility (mole fraction) (in ethanol, 303.15 K): 0.00858
- solubility (mole fraction) (in ethanol, 308.15 K): 0.0104
- solubility (mole fraction) (in ethanol, 313.15 K): 0.0126
- solubility (mole fraction) (in ethanol, 318.15 K): 0.0156
- solubility (mole fraction) (in ethanol, 323.15 K): 0.0189
- solubility (mole fraction) (in ethanol, 328.15 K): 0.0232
- solubility (mole fraction) (in ethanol, 333.15 K): 0.0282
- solubility (mole fraction) (in ethyl acetate, 298.15 K): 0.17
- solubility (mole fraction) (in ethyl acetate, 303.15 K): 0.189
- solubility (mole fraction) (in ethyl acetate, 308.15 K): 0.207
- solubility (mole fraction) (in ethyl acetate, 313.15 K): 0.228
- solubility (mole fraction) (in ethyl acetate, 318.15 K): 0.251
- solubility (mole fraction) (in ethyl acetate, 323.15 K): 0.277
- solubility (mole fraction) (in ethyl acetate, 328.15 K): 0.306
- solubility (mole fraction) (in ethyl acetate, 333.15 K): 0.336
- solubility (mole fraction) (in isopropanol, 298.15 K): 0.00322
- solubility (mole fraction) (in isopropanol, 303.15 K): 0.00429
- solubility (mole fraction) (in isopropanol, 308.15 K): 0.00581
- solubility (mole fraction) (in isopropanol, 313.15 K): 0.00763
- solubility (mole fraction) (in isopropanol, 318.15 K): 0.01
- solubility (mole fraction) (in isopropanol, 323.15 K): 0.0131
- solubility (mole fraction) (in isopropanol, 328.15 K): 0.0173
- solubility (mole fraction) (in isopropanol, 333.15 K): 0.0223
- solubility (mole fraction) (in methanol, 298.15 K): 0.00929
- solubility (mole fraction) (in methanol, 303.15 K): 0.0112
- solubility (mole fraction) (in methanol, 308.15 K): 0.0135
- solubility (mole fraction) (in methanol, 313.15 K): 0.0163
- solubility (mole fraction) (in methanol, 318.15 K): 0.0197
- solubility (mole fraction) (in methanol, 323.15 K): 0.0236
- solubility (mole fraction) (in methanol, 328.15 K): 0.0284
- solubility (mole fraction) (in methanol, 333.15 K): 0.0341
- solubility (mole fraction) (in n-butanol, 298.15 K): 0.00624
- solubility (mole fraction) (in n-butanol, 303.15 K): 0.00794
- solubility (mole fraction) (in n-butanol, 308.15 K): 0.0101
- solubility (mole fraction) (in n-butanol, 313.15 K): 0.0128
- solubility (mole fraction) (in n-butanol, 318.15 K): 0.016
- solubility (mole fraction) (in n-butanol, 323.15 K): 0.0201
- solubility (mole fraction) (in n-butanol, 328.15 K): 0.025
- solubility (mole fraction) (in n-butanol, 333.15 K): 0.0308
- solubility (mole fraction) (in tetrachloromethane, 298.15 K): 0.0153
- solubility (mole fraction) (in tetrachloromethane, 303.15 K): 0.0207
- solubility (mole fraction) (in tetrachloromethane, 308.15 K): 0.0276
- solubility (mole fraction) (in tetrachloromethane, 313.15 K): 0.0368
- solubility (mole fraction) (in tetrachloromethane, 318.15 K): 0.049
- solubility (mole fraction) (in tetrachloromethane, 323.15 K): 0.0638
- solubility (mole fraction) (in tetrachloromethane, 328.15 K): 0.0835
- solubility (mole fraction) (in tetrachloromethane, 333.15 K): 0.108
- solubility (mole fraction) (in toluene, 298.15 K): 0.201
- solubility (mole fraction) (in toluene, 303.15 K): 0.225
- solubility (mole fraction) (in toluene, 308.15 K): 0.25
- solubility (mole fraction) (in toluene, 313.15 K): 0.277
- solubility (mole fraction) (in toluene, 318.15 K): 0.307
- solubility (mole fraction) (in toluene, 323.15 K): 0.34
- solubility (mole fraction) (in toluene, 328.15 K): 0.374
- solubility (mole fraction) (in toluene, 333.15 K): 0.413
